Data as given in patent US11649229B2, “Amide compounds for treatment of immune and inflammatory disorders” (Achillion Pharmaceuticals, Inc., priority 2015, dated 2023).

Biological target: Human Factor D (Homo sapiens (Human), UniProt P00746)
Assay: Human Factor D assay
Assay type: biochemical
Details: Human Factor D 80 nM, substrate Z-L-Lys-SBzl, assay of Example 12
Description: Human Factor D (purified from human serum, Complement Technology, Inc.) at 80 nM final concentration is incubated with test compound at various concentrations for 5 minutes at room temperature in 50 mM Tris, 1M NaCl, pH 7.5. A synthetic substrate Z-L-Lys-SBzl and DTNB (Ellman's reagent) are added to final concentrations of 100 μM each. Absorbance at 405 nm (A405) is recorded at 30 second intervals for 30 minutes using a microplate spectrophotometer. IC50 values are calculated by nonlinear regression of complement Factor D reaction rates as a function of test compound concentration.
The assay of Example 12 was used to determine the IC50's of the compounds. Other standard Factor D inhibition assays are also available.

Chain of Human Factor D (P00746 26-253): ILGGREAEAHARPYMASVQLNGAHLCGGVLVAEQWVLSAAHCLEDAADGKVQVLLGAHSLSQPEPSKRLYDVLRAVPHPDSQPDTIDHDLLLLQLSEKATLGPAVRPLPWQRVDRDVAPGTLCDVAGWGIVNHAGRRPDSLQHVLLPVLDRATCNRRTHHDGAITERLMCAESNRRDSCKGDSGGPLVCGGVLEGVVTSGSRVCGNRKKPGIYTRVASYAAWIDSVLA

SMILES: Cc1cccc(NC(=O)[C@@H]2CCC(F)CCN2C(=O)Cn2cc(C(N)=O)c3cc(C(=O)NS(=O)(=O)C4CC4)ccc32)n1 (stereo partly drawn) [compound 8, N5-(cyclopropylsulfonyl)-1-(2-((2S)-5-fluoro-2-((6-methylpyridin-2-yl)carbamoyl)azepan-1-yl)-2-oxoethyl)-1H-indole-3,5-dicarboxamide]
- IC50: > 10 µM
